Measurements as given in BindingDB's records for doi:10.1016/j.ejmech.2020.112861 (Zhengzhou University, 2021).

Biological target: Bromodomain-containing protein 4 (Homo sapiens, UniProt O60885)
Assay: Binding affinity to human BRD4 bromodomain1 by isothermal titration calorimetry

Kd: 0.95 µM
Structure (SMILES): Cc1noc(C)c1-c1ccc2c(c1)nc(CCc1ccccc1)n2CCN1CCOCC1
